According to the supplement of paper PMC10307832:

Tests used:
Test in all cases: relative viability (nuclei count vs DMSO), 5 days (fraction); higher = more cells survive
Dovitinib + Vorinostat = compound: CN1CCN(c2ccc3nc(-c4c(N)c5c(F)cccc5[nH]c4=O)[nH]c3c2)CC1 [Dovitinib] + O=C(CCCCCCC(=O)Nc1ccccc1)NO [Vorinostat] (partner 1 µM)
In short: (§1)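 Relative viability equals treated-well nuclei counts divided by vehicle-well nuclei counts. Counts came from 4× images of lung cancer cell lines grown in 1536-well plates for 5 days after pin-tool dosing on the day after seeding. Dosing used one drug alone or a fixed anchor-drug dose plus five library-drug doses (not always all listed) in √10 steps, and values are medians of duplicate plates.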

Dovitinib + Crizotinib = compound: CN1CCN(c2ccc3nc(-c4c(N)c5c(F)cccc5[nH]c4=O)[nH]c3c2)CC1 [Dovitinib] + C[C@@H](Oc1cc(-c2cnn(C3CCNCC3)c2)cnc1N)c1c(Cl)ccc(F)c1Cl [Crizotinib] (partner 1 µM)
In short: as §1

Dovitinib + Tozasertib = compound: CN1CCN(c2ccc3nc(-c4c(N)c5c(F)cccc5[nH]c4=O)[nH]c3c2)CC1 [Dovitinib] + Cc1cc(Nc2cc(N3CCN(C)CC3)nc(Sc3ccc(NC(=O)C4CC4)cc3)n2)n[nH]1 [Tozasertib] (partner 0.1 µM)
In short: as §1

Dovitinib + Navitoclax = compound: CN1CCN(c2ccc3nc(-c4c(N)c5c(F)cccc5[nH]c4=O)[nH]c3c2)CC1 [Dovitinib] + CC1(C)CCC(c2ccc(Cl)cc2)=C(CN2CCN(c3ccc(C(=O)NS(=O)(=O)c4ccc(N[C@H](CCN5CCOCC5)CSc5ccccc5)c(S(=O)(=O)C(F)(F)F)c4)cc3)CC2)C1 [Navitoclax] (partner 0.5 µM)
In short: as §1

Cell Line	relative viability (Dovitinib + Vorinostat; first compound 0.02 µM)	relative viability (Dovitinib + Vorinostat; first compound 0.06325 µM)	relative viability (Dovitinib + Vorinostat; first compound 0.2 µM)	relative viability (Dovitinib + Vorinostat; first compound 0.6325 µM)	relative viability (Dovitinib + Vorinostat; first compound 2 µM)	relative viability (Dovitinib + Crizotinib; first compound 0.02 µM)	relative viability (Dovitinib + Crizotinib; first compound 0.06325 µM)	relative viability (Dovitinib + Crizotinib; first compound 0.2 µM)	relative viability (Dovitinib + Crizotinib; first compound 0.6325 µM)	relative viability (Dovitinib + Crizotinib; first compound 2 µM)	relative viability (Dovitinib + Tozasertib; first compound 0.02 µM)	relative viability (Dovitinib + Tozasertib; first compound 0.06325 µM)	relative viability (Dovitinib + Tozasertib; first compound 0.2 µM)	relative viability (Dovitinib + Tozasertib; first compound 0.6325 µM)	relative viability (Dovitinib + Tozasertib; first compound 2 µM)	relative viability (Dovitinib + Navitoclax; first compound 0.02 µM)	relative viability (Dovitinib + Navitoclax; first compound 0.06325 µM)	relative viability (Dovitinib + Navitoclax; first compound 0.2 µM)	relative viability (Dovitinib + Navitoclax; first compound 0.6325 µM)	relative viability (Dovitinib + Navitoclax; first compound 2 µM)
SK-LU-1	0.753	0.913	0.759	0.715	0.805	0.835	0.984	0.86	0.958	0.974	0.305	0.375	0.33	0.325	0.409	0.787	1.09	0.835	0.748	0.925
NCI-H441	0.76	0.795	0.849	0.628	0.772	0.597	0.661	0.715	0.862	0.798	0.668	0.599	0.559	0.626	0.575	0.665	0.54	0.911	0.572	0.775
SK-MES-1	1.08	1.13	1.17	1.09	1.12	1.04	0.957	0.932	1.01	0.954	0.861	0.934	0.893	0.835	0.983	1.24	1.21	1.16	1.31	1.27
NCI-H1355	0.671	0.638	0.628	0.695	0.704	1.06	1.02	1.06	1.09	1.06	0.567	0.566	0.618	0.54	0.596	0.917	0.958	1.04	0.985	1.08
SW 1573	0.65	0.908	0.6	0.702	1.02	0.773	0.809	0.805	0.749	0.804	0.183	0.175	0.163	0.144	0.164	1.03	0.934	1.02	0.97	1
NCI-H2347	0.694	0.647	0.561	0.692	0.686	0.784	0.653	0.79	0.961	0.676	0.523	0.478	0.503	0.619	0.62	0.892	0.812	0.86	0.707	0.932
LCLC-97TM1	0.719	0.612	0.734	0.688	0.751	0.332	0.305	0.372	0.275	0.253	0.243	0.207	0.231	0.195	0.235	0.368	0.384	0.339	0.403	0.478
EMC-BAC-2	0.512	0.449	0.422	0.522	0.517	0.702	0.699	0.749	0.62	0.776	0.294	0.299	0.287	0.273	0.3	1.12	1.2	1.12	1.15	1.13
NCI-H1975	0.692	0.728	0.662	0.734	0.682	0.898	0.934	1.02	0.937	0.95	0.72	0.754	0.763	0.689	0.685	1.07	1.01	1.09	1	1.2
BEN	0.551	0.542	0.578	0.598	0.57	0.864	0.903	0.912	0.827	0.887	0.512	0.526	0.591	0.635	0.419	0.0734	0.0569	0.0676	0.0923	0.0738
NCI-H23	0.551	0.699	0.616	0.735	0.643	0.539	0.531	0.526	0.421	0.554	0.293	0.475	0.581	0.354	0.358	0.83	0.759	0.769	0.908	0.764
NCI-H520	0.765	0.698	0.62	0.656	0.643	0.746	0.724	0.782	0.781	0.798	0.453	0.486	0.409	0.431	0.427	1.17	1.21	1.09	1.03	0.905
